In patent publication US9557338B2 (SIGNAL PHARMACEUTICALS, LLC, priority 2012, dated 2017):
Like-named read-outs stand apart in the source and are kept apart here.

Experiments:
Format in all cases: cell-based
[1] = system: Phospho-GSK3β(S9); test: Luminex multiplex assay, Phospho-GSK3β(S9)
Excerpt: (§1) Determination of Phospho-GSK3β(S9), Phospho-PRAS40(T246) and Phospho-4E-BP1(T46) and the Effect of Compound 1 or Rapamycin.
(§2) The multiplex Luminex assay format differs from conventional enzyme-linked immunosorbent assay (ELISA) in that the multiplex capture antibody is attached to a polystyrene bead whereas the ELISA capture antibody is attached to the microplate well. The use of the suspension bead-based technology enables the multiplexing capabilities of the Luminex assays. The xMAP® technology uses 5.6 micron polystyrene microspheres, which are internally dyed with red and infrared fluorophores of differing intensities. Each bead is given a unique number, or bead region, allowing differentiation of one bead from another. Beads covalently bound to different specific antibodies can be mixed in the same assay, utilizing a 96-well microplate format. At the completion of the sandwich immunoassay, beads can be read, using the Luminex 100™ or Luminex 200 detection system, in single-file by dual lasers for classification and quantification of each analyte. The Akt-Pathway Phospho 5-plex kit used was custom made and includes the ability to simultaneously measure p-GSK3β (S9), p-PRAS40(T246), and p-4E-BP1(T46).
(§3) Cells were plated at the required density. The cells were treated with either Compound 1 or rapamycin over a range of concentrations for 1 hour in 5% CO2 at 37° C. Compound 1 and rapamycin were used at the same concentrations as for the proliferation assay. As for the cell proliferation assay, a reference standard was included in the assay for PC3 cells and the coefficient of variation for assay of p-GSK3β(S9) was 37.8% (n=30), p-PRAS40(T246) was 27.8% (n=30) and for p4E-BP1(T46) was 13.5% (n=4). For three cell lines (HCT-116, MDA-MB-231 and HT29) in the assay for phosphorylation of GSK3β, PRAS40 and 4E-BP1, IGF-I stimulation (500 ng/mL, recombinant human IGF-I) for the last 10 min of incubation was used. The media was aspirated from the wells and the plate was placed on ice. Then 35 μL of Lysis Buffer was added to each well and incubated on ice for at least 30 minutes. During the incubation, the standard curve for each phosphoprotein was prepared. The standards provided were reconstituted and serial dilutions were prepared according to the manufacturer's instructions. At the end of the cell lysis step, […] of the lysate was transferred to a V-bottom plate and spun at 4° C. at 2000 rpm for 5 minutes. Both the 1× Luminex bead and 1× detector antibody solutions were prepared during this time. The 1× bead solution was vortexed and 25 μL was added into each well of a black round bottom plate. Then 50 μL of the 1× detector antibody was added to each well. Fifty microliters (50 μL) of the prepared standards were added to the designated wells. Then 25 μL of the assay diluent was added to each well designated for the compound-treated cell lysates. At the end of the spin, 25 μL of cell lysate was added to the corresponding wells of the black assay plate. The assay plate was covered with the white plate lid and incubated for 3 hours at room temperature on an orbital shaker.
(§4) Approximately 10-15 minutes prior to the end of the first incubation, the secondary antibody solution was prepared according to the vendor's protocol. Goat anti-rabbit R-phycoerythrin red fluorescent protein (RPE) supplied as a 10× concentrate was diluted to generate a 1× goat anti-rabbit RPE stock. The 96-well filter plate was pre-wet with 200 μL of 1× Working wash solution. At the end of the 3 hour incubation, a multichannel pipette was used to transfer the entire contents from each assay well into the wells of the filter plate. The liquid from the wells was removed by aspiration with the vacuum manifold. Then 200 μL of 1× Working wash solution was added into each well. The wash solution was aspirated using the vacuum manifold after 15-30 seconds. This wash step was repeated one time. The bottom of the plate was blotted on clean paper towels to remove residual liquid. […]

[2] = system: p70S6K; test: Luminex multiplex assay, p70S6K phosphorylation in cell lysates
Excerpt: as §2, §3, §4

[3] = system: Phospho-PRAS40(T246); test: Luminex multiplex assay, Phospho-PRAS40(T246)
Excerpt: as §1, §2, §3, §4

[4] = PC3 cell line, read-out: Luminex GSK-3β
[5] = PC3 cell line, read-out: Luminex p70S6K
[6] = PC3 cell line, read-out: Luminex PRAS40
[7] = Homo sapiens, U-87 MG, U87MG cell line, read-out: Luminex GSK-3β
[8] = Homo sapiens, HCT-116, HCT116 cell line, IGF, read-out: Luminex p70S6K (IGF)
[9] = Homo sapiens, U-87 MG, U87MG cell line, read-out: Luminex p70S6K
[10] = Homo sapiens, HCT-116, HCT116 cell line, IGF, read-out: Luminex PRAS40 (IGF)
[11] = Homo sapiens, U-87 MG, U87MG cell line, read-out: Luminex PRAS40

CC(C)(O)c1ccc(-c2cnc3c(n2)N([C@H]2CC[C@@H](O)CC2)C(=O)CN3)cn1 [C-64]
IC50 [1, 4]: 299 nM
IC50 [2, 5]: 61 nM
IC50 [3, 6]: 349 nM

CO[C@H]1CC[C@H](N2CC(=O)Nc3ncc(-c4ccc(-c5nnc[nH]5)nc4C)nc32)C1 [C-50]
IC50 [1, 4]: > 500 nM
IC50 [2, 5]: 48 nM
IC50 [3, 6]: > 500 nM

COC1CCC(N2CC(=O)Nc3ncc(-c4cnc(C(N)=O)cc4C)nc32)CC1 (stereo not shown) [C-82]
IC50 [1, 4]: > 1500 nM
IC50 [2, 5]: 467 nM
IC50 [3, 6]: > 1500 nM

CO[C@@H]1CC[C@H](N2C(=O)CNc3ncc(-c4ccc(C(C)(C)O)nc4)nc32)C1 [C-80]
IC50 [1, 4]: 841 nM
IC50 [2, 5]: 133 nM
IC50 [3, 6]: 724 nM

O=C1CNc2ncc(-c3cncnc3)nc2N1CCC1CCOCC1 [C-106]
IC50 [1, 4]: > 1500 nM
IC50 [2, 5]: > 1500 nM
IC50 [3, 6]: > 1500 nM

O=C1CN(CCC2CCOCC2)c2nc(-c3cnc4nc[nH]c4c3)cnc2N1 [C-74]
IC50 [1, 4]: > 1500 nM
IC50 [2, 5]: > 1500 nM
IC50 [3, 6]: > 1500 nM

O=C1CNc2ncc(-c3ccc4cc[nH]c4c3)nc2N1CCC1CCOCC1 [C-49]
IC50 [1, 4]: 3840 nM
IC50 [2, 5]: 468 nM
IC50 [3, 6]: 1990 nM

COC1CCC(N2CC(=O)Nc3ncc(-c4ccc(-c5nc[nH]n5)c(F)c4C)nc32)CC1 (stereo not shown) [C-108]
IC50 [1, 4]: 37 nM
IC50 [2, 5]: 5 nM
IC50 [3, 6]: 31 nM

O=C1CNc2ncc(-c3cnc4[nH]ccc4c3)nc2N1CCC1CCOCC1 [C-61]
IC50 [1, 4]: 33 nM
IC50 [2, 5]: 3 nM
IC50 [3, 6]: 21 nM

Cc1nc(-c2nnc[nH]2)ccc1-c1cnc2c(n1)N(CCC1CCOCC1)C(=O)CN2 [A-4, 7-(2-methyl-6-(4H-1,2,4-triazol-3-yl)pyridin-3-yl)-1-(2-(tetrahydro-2H-pyran-4-yl)ethyl)-3,4-dihydropyrazino[2,3-b]pyrazin-2(1H)-one]
IC50 ([1]; Homo sapiens, HCT-116, HCT116 cell line, IGF, read-out: Luminex GSK-3β (IGF)): 96.2 nM
IC50 [1, 7]: 71 nM
IC50 [2, 8]: 96.6 nM
IC50 [2, 9]: 27.8 nM
IC50 [3, 10]: 120 nM
IC50 [3, 11]: 98 nM

O=C1CNc2ncc(-c3ccncc3)nc2N1CCC1CCOCC1 [C-101]
IC50 [1, 4]: > 1500 nM
IC50 [2, 5]: 469 nM
IC50 [3, 6]: > 1500 nM

CC(C)(O)c1ccc(-c2cnc3c(n2)N(Cc2cccc(C#N)c2)C(=O)CN3)cn1 [C-85]
IC50 [1, 4]: 30 nM
IC50 [2, 5]: 27 nM
IC50 [3, 6]: 139 nM

CO[C@@H]1CC[C@H](N2CC(=O)Nc3ncc(-c4ccc(C(C)(C)O)nc4)nc32)C1 [C-28]
IC50 [1, 4]: > 5000 nM
IC50 [2, 5]: 452 nM
IC50 [3, 6]: 2360 nM

CO[C@@H]1CC[C@@H](CN2CC(=O)Nc3ncc(-c4ccc(C(C)(C)O)nc4)nc32)C1 [C-25]
IC50 [1, 4]: 1780 nM
IC50 [2, 5]: 94 nM
IC50 [3, 6]: 705 nM

O=C1CNc2ncc(-c3cn[nH]c3)nc2N1CCC1CCOCC1 [C-94]
IC50 [1, 4]: > 1500 nM
IC50 [2, 5]: 209 nM
IC50 [3, 6]: > 1500 nM

CC(C)(O)c1ccc(-c2cnc3c(n2)N(C2CCOCC2)C(=O)CN3)cn1 [C-47]
IC50 [1, 4]: 3110 nM
IC50 [2, 5]: 497 nM
IC50 [3, 6]: 1470 nM

O=C1CNc2ncc(-c3ccc4cn[nH]c4c3)nc2N1CCC1CCOCC1 [C-75]
IC50 [1, 4]: > 1500 nM
IC50 [2, 5]: 173 nM
IC50 [3, 6]: > 1500 nM

O=C1CN(CCC2CCOCC2)c2nc(-c3ccc4[nH]ccc4c3)cnc2N1 [C-40]
IC50 [1, 4]: > 5000 nM
IC50 [2, 5]: 1520 nM
IC50 [3, 6]: > 5000 nM

O=C1CNc2ncc(-c3ccc4[nH]ccc4c3)nc2N1CCC1CCOCC1 [C-55]
IC50 [1, 4]: 341 nM
IC50 [2, 5]: 25 nM
IC50 [3, 6]: 228 nM

O=C1CN(CCC2CCOCC2)c2nc(-c3ccc4cc[nH]c4c3)cnc2N1 [C-41]
IC50 [1, 4]: 3180 nM
IC50 [2, 5]: 746 nM
IC50 [3, 6]: 5000 nM

O=c1[nH]c2ncc(-c3ccc(C4(O)COC4)nc3)nc2n1CCC1CCOCC1 [C-76]
IC50 [1, 4]: > 1500 nM
IC50 [2, 5]: > 1500 nM
IC50 [3, 6]: > 1500 nM

N#Cc1cccc(-c2cnc3c(n2)N(CCC2CCOCC2)CC(=O)N3)c1 [C-83]
IC50 [1, 4]: > 1500 nM
IC50 [2, 5]: > 1500 nM
IC50 [3, 6]: > 1500 nM

COCCN1C(=O)CNc2ncc(-c3cnc4[nH]ccc4c3)nc21 [C-104]
IC50 [1, 4]: 168 nM
IC50 [2, 5]: < 1.5 nM
IC50 [3, 6]: 106 nM

CC(C)(O)c1ccc(-c2cnc3c(n2)N(CC2CCOCC2)CC(=O)N3)cc1 [A-6, 6-(4-(2-hydroxypropan-2-yl)phenyl)-4-((tetrahydro-2H-pyran-4-yl)methyl)-3,4-dihydropyrazino[2,3-b]pyrazin-2(1H)-one]
IC50 [1, 7]: 2470 nM
IC50 [2, 8]: 654 nM
IC50 [2, 9]: 162 nM
IC50 [3, 10]: 492 nM
IC50 [3, 11]: 3240 nM

COC1CCC(N2C(=O)CNc3ncc(-c4ccc(C(C)(C)O)[n+]([O-])c4)nc32)CC1 (stereo not shown) [C-98]
IC50 [1, 4]: > 1500 nM
IC50 [2, 5]: 825 nM
IC50 [3, 6]: > 1500 nM

NC(=O)c1cccc(-c2cnc3c(n2)N(CCC2CCOCC2)C(=O)CN3)c1 [C-90]
IC50 [1, 4]: > 1500 nM
IC50 [2, 5]: 1330 nM
IC50 [3, 6]: > 1500 nM

Cc1cc(-c2nnc[nH]2)ncc1-c1cnc2c(n1)N(CC1CCOCC1)C(C)(C)C(=O)N2 [C-30]
IC50 [1, 4]: 21 nM
IC50 [2, 5]: 1 nM
IC50 [3, 6]: 5 nM

COC1CCC(N2C(=O)CNc3ncc(-c4ccc(C(C)(C)O)nc4)nc32)C1 (stereo not shown) [C-81]
IC50 [1, 4]: > 1500 nM
IC50 [2, 5]: 134 nM
IC50 [3, 6]: 847 nM

CC(C)(O)c1ccc(-c2cnc3c(n2)N(CC2CCOCC2)CC(=O)N3)cn1 [C-5]
IC50 [1, 4]: 964 nM
IC50 [2, 5]: 156 nM
IC50 [3, 6]: 1750 nM

Cc1nc(-c2nnc[nH]2)ccc1-c1cnc2c(n1)N(Cc1cccc(C#N)c1)C(=O)CN2 [C-92]
IC50 [1, 4]: 8 nM
IC50 [2, 5]: 1 nM
IC50 [3, 6]: 9 nM

COC1CCC(CN2C(=O)CNc3ncc(-c4cnc(C(N)=O)cc4C)nc32)CC1 (stereo not shown) [C-89]
IC50 [1, 4]: 860 nM
IC50 [2, 5]: 102 nM
IC50 [3, 6]: 1010 nM

CO[C@@H]1CC[C@@H](N2C(=O)CNc3ncc(-c4ccc(-c5nnc[nH]5)nc4C)nc32)C1 [C-58]
IC50 [1, 4]: 507 nM
IC50 [2, 5]: 48 nM
IC50 [3, 6]: 209 nM

O=C1CN(CCC2CCOCC2)c2nc(-c3ccc4cn[nH]c4c3)cnc2N1 [C-68]
IC50 [1, 4]: > 1500 nM
IC50 [2, 5]: 752 nM
IC50 [3, 6]: > 1500 nM

CCN1C(=O)CNc2ncc(-c3cccc4[nH]ncc34)nc21 [C-102]
IC50 [1, 4]: > 1500 nM
IC50 [2, 5]: > 1500 nM
IC50 [3, 6]: > 1500 nM

COCCN1CC(=O)Nc2ncc(-c3cnc(-c4ncn[nH]4)cc3C)nc21 [C-88]
IC50 [1, 4]: 8 nM
IC50 [2, 5]: 3 nM
IC50 [3, 6]: 23 nM

COC1CCC(CN2CC(=O)Nc3ncc(-c4ccc(C(C)(C)O)nc4)nc32)C1 (stereo not shown) [C-21]
IC50 [1, 4]: 1680 nM
IC50 [2, 5]: 105 nM
IC50 [3, 6]: 795 nM

C[C@@H](O)c1ccc(-c2cnc3c(n2)N(CCC2CCOCC2)C(=O)CN3)cn1 [A-8, (R)-7-(6-(1-hydroxyethyl)pyridin-3-yl)-1-(2-(tetrahydro-2H-pyran-4-yl)ethyl)-3,4-dihydropyrazino[2,3-b]pyrazin-2(1H)-one]
IC50 [1, 7]: 402 nM
IC50 [2, 8]: 91 nM
IC50 [2, 9]: 35.5 nM
IC50 [3, 10]: 160 nM
IC50 [3, 11]: 255 nM

COC1CCC(CN2C(=O)CNc3ncc(-c4cnc(-c5nc[nH]n5)cc4C)nc32)CC1 (stereo not shown) [C-91]
IC50 [1, 4]: 4 nM
IC50 [2, 5]: 2 nM
IC50 [3, 6]: 7 nM
